Assay results reported in ChEMBL document CHEMBL1275596, “Prevalence of fosfomycin resistance among CTX-M-producing Escherichia coli clinical isolates in Japan and identification of novel plasmid-mediated fosfomycin-modifying enzymes” (2010).
Values after ≈ are worked out from the molar mass of the structure shown.

Assays:
Type in all cases: functional
Escherichia coli [1] = experiment: Antimicrobial activity against Escherichia coli DH10B transformant containing Sac2 fragment with fosA3 gene from 08-607
Escherichia coli [2] = experiment: Antimicrobial activity against beta-lactamase CTX-M-producing Escherichia coli isolate 08-555 harboring glpT gene with 981[227-bp deletion]1209
Escherichia coli [3] = experiment: Antimicrobial activity against rifampin-, nalidixic acid resistant Escherichia coli CSH-2
Escherichia coli [4] = experiment: Antimicrobial activity against beta-lactamase CTX-M-producing Escherichia coli isolate 03-287 harboring glpT gene with 405[5-bp duplication]411
Escherichia coli [5] = experiment: Antimicrobial activity against Escherichia coli CSH-2 conjugant of strain 08-607
Escherichia coli [6] = experiment: Antimicrobial activity against beta-lactamase CTX-M-producing Escherichia coli isolate 08-642
Escherichia coli [7] = experiment: Antimicrobial activity against beta-lactamase CTX-M-producing Escherichia coli isolate 03-286 harboring glpT gene with 405[5-bp duplication]411
Escherichia coli [8] = experiment: Antimicrobial activity against Escherichia coli DH10B transformant containing Kpn1 fragment with fosA3 gene from 08-642
Escherichia coli [9] = experiment: Antimicrobial activity against beta-lactamase CTX-M-producing Escherichia coli isolate C316
Escherichia coli [10] = experiment: Antimicrobial activity against beta-lactamase CTX-M-producing Escherichia coli isolate 06-607
Escherichia coli [11] = experiment: Antimicrobial activity against beta-lactamase CTX-M-producing Escherichia coli isolate 05-244 harboring glpT gene with 328[14-bp duplication]343, uhpT gene with 1173[96-bp deletion]1270
Escherichia coli [12] = experiment: Antimicrobial activity against Escherichia coli DH10B transformant containing Sac2 fragment with fosC2 gene from pHPA
Escherichia coli [13] = experiment: Antimicrobial activity against Escherichia coli CSH-2 conjugant of strain C316
Escherichia coli [14] = experiment: Antimicrobial activity against Escherichia coli CSH-2 conjugant of strain 08-642
Escherichia coli [15] = experiment: Antimicrobial activity against beta-lactamase CTX-M-producing Escherichia coli isolate 03-271
Escherichia coli [16] = experiment: Antimicrobial activity against beta-lactamase CTX-M-producing Escherichia coli isolate 03-285
Escherichia coli [17] = experiment: Antimicrobial activity against beta-lactamase CTX-M-producing Escherichia coli isolate 05-690 harboring uhpA stop at amino acid at 144
Escherichia coli [18] = experiment: Antimicrobial activity against streptomycin-, chloramphenicol-resistant pBCKS positive Escherichia coli DH10B transformant
Escherichia coli [19] = experiment: Antimicrobial activity against Escherichia coli DH10B transformant containing Sac2 fragment with fosC2 gene from pHPA by agar dilution method
Escherichia coli [20] = experiment: Antimicrobial activity against beta-lactamase CTX-M-producing Escherichia coli isolate 03-287 harboring glpT gene with 405[5-bp duplication]411 by agar dilution method
Escherichia coli [21] = experiment: Antimicrobial activity against beta-lactamase CTX-M-producing Escherichia coli isolate 03-286 harboring glpT gene with 405[5-bp duplication]411 by agar dilution method
Escherichia coli [22] = experiment: Antimicrobial activity against Escherichia coli CSH-2 conjugant of strain 08-607 by agar dilution method
Escherichia coli [23] = experiment: Antimicrobial activity against Escherichia coli DH10B transformant containing Kpn1 fragment with fosA3 gene from 08-642 by agar dilution method
Escherichia coli [24] = experiment: Antimicrobial activity against beta-lactamase CTX-M-producing Escherichia coli isolate 03-285 by agar dilution method
Escherichia coli [25] = experiment: Antimicrobial activity against Escherichia coli CSH-2 conjugant of strain C316 by agar dilution method
Escherichia coli [26] = experiment: Antimicrobial activity against beta-lactamase CTX-M-producing Escherichia coli isolate 05-690 harboring uhpA stop codon at amino acid at 144 by agar dilution method
Escherichia coli [27] = experiment: Antimicrobial activity against beta-lactamase CTX-M-producing Escherichia coli isolate 06-607 by agar dilution method
Escherichia coli [28] = experiment: Antimicrobial activity against Escherichia coli CSH-2 conjugant of strain 08-642 by agar dilution method
Escherichia coli [29] = experiment: Antimicrobial activity against Escherichia coli DH10B transformant containing Sac2 fragment with fosA3 gene from 08-607 by agar dilution method
Escherichia coli [30] = experiment: Antimicrobial activity against beta-lactamase CTX-M-producing Escherichia coli isolate 03-271 by agar dilution method
Escherichia coli [31] = experiment: Antimicrobial activity against streptomycin-, chloramphenicol-resistant pBCKS positive Escherichia coli DH10B transformant by agar dilution method
Escherichia coli [32] = experiment: Antimicrobial activity against beta-lactamase CTX-M-producing Escherichia coli isolate 08-642 by agar dilution method
Escherichia coli [33] = experiment: Antimicrobial activity against beta-lactamase CTX-M-producing Escherichia coli isolate C316 by agar dilution method
Escherichia coli [34] = experiment: Antimicrobial activity against rifampin-, nalidixic acid resistant Escherichia coli CSH-2 by agar dilution method
Escherichia coli [35] = experiment: Antimicrobial activity against beta-lactamase CTX-M-producing Escherichia coli isolate 05-244 harboring glpT gene with 328[14-bp duplication]343, uhpT gene with 1173[96-bp deletion]1270 by agar dilution method
Escherichia coli [36] = experiment: Antimicrobial activity against beta-lactamase CTX-M-producing Escherichia coli isolate 08-555 harboring glpT gene with 981[227-bp deletion]1209 by agar dilution method

CO/N=C(\C(=O)N[C@@H]1C(=O)N2C(C(=O)O)=C(COC(C)=O)CS[C@H]12)c1csc(N)n1 [CEFOTAXIME]
MIC (Escherichia coli [1]): ≤ 0.06 µg/mL | MIC (Escherichia coli [2]): > 128 µg/mL | MIC (Escherichia coli [3]): ≤ 0.06 µg/mL | MIC (Escherichia coli [4]): 128 µg/mL (≈ 281 µM) | MIC (Escherichia coli [5]): 32 µg/mL (≈ 70.3 µM) | MIC (Escherichia coli [6]): 64 µg/mL (≈ 141 µM) | MIC (Escherichia coli [7]): > 128 µg/mL | MIC (Escherichia coli [8]): ≤ 0.06 µg/mL | MIC (Escherichia coli [9]): 128 µg/mL (≈ 281 µM) | MIC (Escherichia coli [10]): 16 µg/mL (≈ 35.1 µM) | MIC (Escherichia coli [11]): > 128 µg/mL | MIC (Escherichia coli [12]): ≤ 0.06 µg/mL | MIC (Escherichia coli [13]): 64 µg/mL (≈ 141 µM) | MIC (Escherichia coli [14]): 128 µg/mL (≈ 281 µM) | MIC (Escherichia coli [15]): 32 µg/mL (≈ 70.3 µM) | MIC (Escherichia coli [16]): > 128 µg/mL | MIC (Escherichia coli [17]): 64 µg/mL (≈ 141 µM) | MIC (Escherichia coli [18]): ≤ 0.06 µg/mL

C[C@@H]1O[C@@H]1P(=O)(O)O [FOSFOMYCIN]
MIC (Escherichia coli [19]): > 256 µg/mL | MIC (Escherichia coli [20]): > 256 µg/mL | MIC (Escherichia coli [21]): 64 µg/mL (≈ 464 µM) | MIC (Escherichia coli [22]): > 256 µg/mL | MIC (Escherichia coli [23]): > 256 µg/mL | MIC (Escherichia coli [24]): 128 µg/mL (≈ 927 µM) | MIC (Escherichia coli [25]): > 256 µg/mL | MIC (Escherichia coli [26]): 64 µg/mL (≈ 464 µM) | MIC (Escherichia coli [27]): > 256 µg/mL | MIC (Escherichia coli [28]): > 256 µg/mL | MIC (Escherichia coli [29]): > 256 µg/mL | MIC (Escherichia coli [30]): 64 µg/mL (≈ 464 µM) | MIC (Escherichia coli [31]): 0.5 µg/mL (≈ 3.62 µM) | MIC (Escherichia coli [32]): > 256 µg/mL | MIC (Escherichia coli [33]): 256 µg/mL (≈ 1850 µM) | MIC (Escherichia coli [34]): 1 µg/mL (≈ 7.24 µM) | MIC (Escherichia coli [35]): 128 µg/mL (≈ 927 µM) | MIC (Escherichia coli [36]): > 256 µg/mL
